{"source": "patent US9205179B2", "about": "“Broad-spectrum antimicrobial compositions based on combinations of taurolidine and protamine and medical devices containing such compositions” (Ethicon, Inc., priority 2011, dated 2015)", "key": {"[1]": {"tested_on": "Staphylococcus aureus ACTT 6538", "experiment": "In vitro bacteria attachment assay on coated mesh discs in SST medium", "type": "cell-based", "details": "serum containing media; same TU dosage alone or combined with PS", "experimental": "(§1) Taurolidine was dissolved at 4% wt./vol. in a 70% acetone 30% water vol./vol. mixture. Protamine sulfate was dissolved at 10% wt./vol. in water under warming. 50 μl of the taurolidine (TU) solution and 20 μl of the protamine (PS) solution were applied to each mesh disk using a pipette and allowed to dry at 50° C. until the majority of the liquid was gone and then stored under vacuum. First the taurolidine solution was applied, and then immediately thereafter the protamine sulfate solution was applied. The in vitro bacteria attachment assay was developed for its utility of indicating biofilm prevention potential of prototype mesh. Since bacterial attachment to a surface is the first step of biofilm formation, a surface treatment that inhibits bacterial attachment would reduce the chance of subsequent biofilm formation. The assay was conducted in SST (Serum Saline TSB) medium to mimic in vivo and clinical conditions. The formulation of SST is Tryptic Soy Broth (TSB):serum:saline in the ratio of 1:2:7. Each test article was incubated in SST inoculated with Staphylococcus aureus ACTT 6538 or Escherichia coli ATCC 25922 at about 6 Log CFU/ml. […] Viable bacteria populations were measured by plate count on TSA (Tryptic Soy agar) medium contain neutralizing agents. […]"}, "[2]": {"tested_on": "Escherichia coli ATCC 25922", "experiment": "In vitro bacteria attachment assay on coated mesh discs in SST medium", "type": "cell-based", "details": "serum containing media; same TU dosage alone or combined with PS", "experimental": "as §1"}, "[3]": {"details": "cited from earlier work"}}, "data": [{"compound": "O=S1(=O)CCN(CN2CCS(=O)(=O)NC2)CN1", "note": "[TU, bis(1,1-dioxoperhydro-1,2,4-thiadiazinyl-4)-methane]", "values": [{"measurement": "Inhibition of attachment by S. aureus to treated mesh surface", "setting": "[1]", "value": "less inhibition than the combination"}, {"measurement": "Inhibition of attachment by E. coli to treated mesh surface", "setting": "[2]", "value": "less inhibition than the combination"}, {"measurement": "Cumulative dose shown to be safe and well tolerated", "setting": "[3]; cumulative dose, up to and exceeding", "value": "exceeding 300 g"}, {"measurement": "Systemic dose shown to be safe and well tolerated", "setting": "[3]; systemic dose", "value": "exceeding 40 g/day"}]}]}
